Assay results from patent US11905230B2, “Phenoxyacetic acid derivatives, preparation method thereof and use thereof as medicament” (CHINA PHARMACEUTICAL UNIVERSITY, priority 2017, dated 2024).

Key:
normal mice = test: Oral glucose tolerance test (OGTT) in normal mice; format: in vivo, Kunming mice
Experimental: Experimental example 2 In vivo hypoglycemic activity of the compounds of the present invention can be determined by using an assay system as described below:
The mice were fasted for 12 hours before experiment and water was taken freely, each group was administrated by gavage, blood was taken from the tail, and the blood glucose level was measured (recorded as −30 min).

[1] = Evaluation of hepatotoxicity: serum ALT, AST and TBIL after 4 weeks of dosing; format: in vivo
Experimental: Experimental example 3 Evaluation of hepatotoxicity of the compounds of the present invention:
The test compounds were administered once a day for consecutive 4 weeks, blood was taken, and the contents of alanine aminotransferase (ALT), aspartate aminotransferase (AST), and total bilirubin (TBIL) were measured.

GPR120 = GPR120 (Homo sapiens (Human), UniProt Q5NUL3); test: selective experiment of GPR120 agonism; format: cell-based; details: selectivity experiment; read-out: EC K (EC50) of GPR120 agonism
GPR120, sequence (Q5NUL3 whole entry, species assumed): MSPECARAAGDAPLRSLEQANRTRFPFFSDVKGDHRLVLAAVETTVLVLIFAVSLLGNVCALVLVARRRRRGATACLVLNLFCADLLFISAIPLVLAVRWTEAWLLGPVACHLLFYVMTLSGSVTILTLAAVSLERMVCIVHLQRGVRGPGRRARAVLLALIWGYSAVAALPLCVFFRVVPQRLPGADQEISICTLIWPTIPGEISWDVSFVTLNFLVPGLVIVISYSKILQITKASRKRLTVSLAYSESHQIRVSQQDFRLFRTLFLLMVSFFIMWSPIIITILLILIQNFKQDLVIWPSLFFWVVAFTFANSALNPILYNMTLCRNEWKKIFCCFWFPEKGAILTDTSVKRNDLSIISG

hGPR40 receptor = hGPR40 receptor (Homo sapiens (Human), UniProt O14842); test: agonistic activity on hGPR40-CHO stably transfected cells (Fluo-4 / FLIPR); format: cell-based
hGPR40 receptor, sequence (O14842 whole entry): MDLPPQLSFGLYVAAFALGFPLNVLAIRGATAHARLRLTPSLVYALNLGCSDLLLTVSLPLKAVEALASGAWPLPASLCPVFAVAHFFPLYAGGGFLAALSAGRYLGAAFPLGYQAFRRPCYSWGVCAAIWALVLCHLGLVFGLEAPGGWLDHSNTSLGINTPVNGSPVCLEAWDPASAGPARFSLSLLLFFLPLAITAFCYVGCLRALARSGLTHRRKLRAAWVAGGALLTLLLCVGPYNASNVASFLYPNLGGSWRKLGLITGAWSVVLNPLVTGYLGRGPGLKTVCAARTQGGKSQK
Experimental: Experimental example 1 The agonistic activity of the compounds of the present invention on hGPR40-CHO stably transfected cells
The present invention used the following method to determine the GPR40 agonistic activity of the compounds of the invention:
hGPR40-CHO stably transfected cells were seeded into a 96-well plate at a density of 3×10^4/well, and incubated overnight in a 37° C., 5% CO2 cell incubator; the medium was discarded, 100 μl of HBSS was added to each well, and 100 μl of Fluo-4 dye solution containing Probenecid was added and incubated at 37° C. for 90 min. After the incubation, the Fluo-4 dye solution was sucked out, 100 μl of HBSS buffer was added, and the dye was washed away; 100 μl of HBSS containing Probenecid was added to each well, and incubated at 37° C. for 10 min; different concentrations of drugs were added to each well of the 96-well plate and FLIPR (Molecular Devices) was used for readings according to the parameter setting table. The experimental results were analyzed.

PPARγ = PPARγ (Homo sapiens (Human), UniProt P37231); test: selective experiment of PPARγ agonism; format: cell-based; details: selectivity experiment; read-out: EC K (EC50) of PPARγ agonism
PPARγ, sequence (P37231 whole entry, species assumed): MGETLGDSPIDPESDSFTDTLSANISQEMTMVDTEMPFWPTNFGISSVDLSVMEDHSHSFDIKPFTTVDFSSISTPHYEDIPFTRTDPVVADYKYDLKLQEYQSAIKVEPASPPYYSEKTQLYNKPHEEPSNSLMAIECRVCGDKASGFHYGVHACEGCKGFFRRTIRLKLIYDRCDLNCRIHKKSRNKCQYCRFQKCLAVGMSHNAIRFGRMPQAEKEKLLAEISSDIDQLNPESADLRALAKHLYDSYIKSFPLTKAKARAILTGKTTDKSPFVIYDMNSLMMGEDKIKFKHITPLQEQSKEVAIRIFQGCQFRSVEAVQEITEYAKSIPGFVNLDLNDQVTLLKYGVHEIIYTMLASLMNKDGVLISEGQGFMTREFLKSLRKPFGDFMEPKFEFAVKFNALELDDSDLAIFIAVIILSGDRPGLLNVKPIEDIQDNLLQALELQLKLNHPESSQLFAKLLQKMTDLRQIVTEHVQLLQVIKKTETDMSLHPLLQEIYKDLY

[2] = serum, once a day for consecutive 4 weeks, x ± SD, n = 6

**Q.** With `Cc1ccccc1-c1cccc(CNc2ccc(OCC(=O)O)c(F)c2)c1` [Compound I-3, 2-(4-((2′-methyl-[1,1′-biphenyl]-3-methylene)amino)-2-fluorophenoxy)acetic acid] as the compound, how does the “effect on oral glucose tolerance in mice (in words)” value (normal mice; OGTT in normal mice, 20 mg/kg) read?
**A.** Its value is “significantly improve oral glucose tolerance”.

**Q.** And the “blood glucose level at 15 min” value (normal mice; OGTT, 20 mg/kg by gavage, 15 min after glucose load, n = 8, in mmol/L (unit assumed))?
**A.** Its value is 7.13 ± 0.29.

**Q.** And the “blood glucose level at 0 min” value (normal mice; OGTT, 20 mg/kg by gavage, 30 min after dosing, before glucose load, n = 8, in mmol/L (unit assumed))?
**A.** The value was 4.61 ± 0.63.

**Q.** What about the “blood glucose level at 30 min” value (normal mice; OGTT, 20 mg/kg by gavage, 30 min after glucose load, n = 8, in mmol/L (unit assumed)) of the same compound?
**A.** Its value is 6.94 ± 0.38.

**Q.** And the “blood glucose level at 60 min” value (normal mice; OGTT, 20 mg/kg by gavage, 60 min after glucose load, n = 8, in mmol/L (unit assumed))?
**A.** The value was 5.06 ± 0.23.

**Q.** And the “blood glucose level at 120 min” value (normal mice; OGTT, 20 mg/kg by gavage, 120 min after glucose load, n = 8, in mmol/L (unit assumed))?
**A.** Its value is 4.38 ± 0.29.

**Q.** And the “AST, ALT and TBIL compared with STZ (blank) group (in words)” value ([1]; 4 weeks of dosing)?
**A.** Its value is “equivalent to the blank group”.

**Q.** And the “ALT (IU/L)” value [1, 2]?
**A.** The value was 51.23 ± 5.6 IU/L.

**Q.** And the “AST (IU/L)” value [1, 2]?
**A.** Its value is 103.27 ± 9.98 IU/L.

**Q.** And the “TBIL (IU/L)” value [1, 2]?
**A.** Its value is 2.55 ± 0.4 IU/L.

**Q.** And the EC50 (GPR120)?
**A.** Its EC50 is 54 µM.

**Q.** And the activation at 0.1 µM (hGPR40 receptor; 100 nM, relative to linoleic acid well)?
**A.** The activation at 0.1 µM was 87%.

**Q.** And the EC50 (hGPR40 receptor; mean ± SD of three determinations)?
**A.** The EC50 was 0.0048 ± 0.0035 µM.

**Q.** What about the EC50 (PPARγ) of the same compound?
**A.** Its EC50 is 83 µM.
